Data on 26 compounds can be found in EP0677039B1, “CYCLOBUTANE DERIVATIVES AS INHIBITORS OF […] SYNTHETASE AND PROTEIN […]” (Abbott Laboratories, priority 1993, dated 1995).

In one test the target is T1, Rat liver microsomal squalene synthetase (Rattus norvegicus, UniProt Q02769).
T1 construct: Rat liver microsome, the source of enzyme; from tissue; host or cells: rat liver microsomes
T1 sequence (Q02769 1-416): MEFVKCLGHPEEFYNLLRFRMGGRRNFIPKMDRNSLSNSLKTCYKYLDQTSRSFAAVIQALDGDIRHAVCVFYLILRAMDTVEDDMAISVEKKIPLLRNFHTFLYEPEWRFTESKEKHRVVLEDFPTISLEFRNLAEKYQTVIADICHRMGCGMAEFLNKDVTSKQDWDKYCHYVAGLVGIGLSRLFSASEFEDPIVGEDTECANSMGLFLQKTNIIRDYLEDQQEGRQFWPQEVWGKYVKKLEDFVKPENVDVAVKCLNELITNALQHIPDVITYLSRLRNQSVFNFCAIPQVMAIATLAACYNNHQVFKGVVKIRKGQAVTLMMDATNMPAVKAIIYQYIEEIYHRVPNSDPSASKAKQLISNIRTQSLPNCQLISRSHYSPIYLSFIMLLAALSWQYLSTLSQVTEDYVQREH
As to the kind of experiment: In vitro inhibition of squalene synthetase. In kind it is biochemical. The conditions noted are these: 10 µM test compound; rat liver microsomes, labelled farnesyl pyrophosphate, 10 minutes at 37 °C; compared to controls with no test compound. Here is the method:
In vitro inhibition of squalene synthetase may be measured by the following procedure. Rat liver microsomal squalene synthetase activity was measured using farnesyl pyrophosphate as a substrate and quantitating squalene synthesis using labelled farnesyl pyrophosphate and counting the squalene formed. Rat liver microsome, the source of enzyme, was prepared according to the method of Gillies, P. J., et al., Exp. Molc. Pathol. 44: 329-339 (1986), a modification of the procedure of Erickson, S. K., and Cooper, A. D., Metabolism, 29: 991-996 (1980). […] Oxygen was excluded from the closed incubation tube by degassing with nitrogen. The reaction was terminated by the addition of ethanolic KOH and after degassing with N2, the microsomal membranes were solubilized by heating at 60 °C for 30 minutes. The squalene was extracted into hexane, and the squalene was separated from all other radioactive molecules by passage over an activated alumina column. […] The per cent inhibition at a dose of 10 µM (or 1 µM) compared to controls with no test compound was determined. […]
In turn, `CCCN(Cc1ccc(Oc2ccc(C)cc2)cc1)C(=O)C1C(C(=O)O)C(C(=O)O)C1C(=O)N(CCC)Cc1ccc(Oc2ccc(C)cc2)cc1` (stereo not drawn) [Example 90, (1α,2β,3β,4α)-1,2-Di[N-propyl-N-(4-(4-methyl-1-phenoxy)benzyl)aminocarbonyl]cyclobutane-3,4-dicarboxylic acid] gave an inhibition at 10 µM of 53%. The same measure, in the same setting: as for `CN(Cc1ccc(OCc2ccccc2)cc1)C(=O)[C@H]1[C@@H](C(=O)O)[C@H](C(=O)O)[C@@H]1C(=O)N(C)Cc1ccc(OCc2ccccc2)cc1` [Example 14, (1α,2β,3β,4α)-1,2-Di(N-methyl-N-(4-benzyloxybenzyl)aminocarbonyl]cyclobutane-3,4-dicarboxylic acid], the figure is 31%; as for `CCCN(Cc1ccc(Oc2ccccc2)cc1)C(=O)[C@@H]1[C@H](CC(=O)O)[C@@H](CC(=O)O)[C@H]1C(=O)N(CCC)Cc1ccc(Oc2ccccc2)cc1` (relative stereo) [Example 103B, (1α,2β,3β,4α)-1,2-Di[-N-propyl-N-(4-phenoxybenzyl)aminocarbonyl]cyclobutane-3-4-diacetic acid], 90%. “(1α,2β,3β,4α)-1,2-Di[N-propyl-N-(4-phenoxybenzyl)aminocarbonyl]-3,4-di[(hydroxyimino)methyl]-cyclobutane [Example 79B]”: the “% Inhibition at 10 µM” value was 83%.

The compound `CCCN(Cc1ccc(C(=O)c2ccccc2)cc1)C(=O)C1C(C(=O)O)C(C(=O)O)C1C(=O)N(CCC)Cc1ccc(C(=O)c2ccccc2)cc1` (stereo not drawn) [Example 118B, (1α,2β,3β,4α)-1,2-Di[N-propyl-N-(4-benzoylbenzyl)aminocarbonyl]cyclobutane-3,4-carboxylic acid] had an inhibition at 10 µM of 51%.

`COc1ccc(CCN(Cc2ccc(Oc3ccccc3)cc2)C(=O)C2C(C(=O)O)C(C(=O)O)C2C(=O)N(CCc2ccc(OC)c(OC)c2)Cc2ccc(Oc3ccccc3)cc2)cc1OC` (stereo not drawn) [Example 55, (1α,2β,3β,4α)-1,2-Di[N-(4-phenoxybenzyl)-N-(3,4-dimethoxyphenethyl)aminocarbonyl]cyclobutane-3,4-dicarboxylic acid] showed an inhibition at 10 µM of 78%. Regarding `CN(Cc1ccc(Oc2ccccc2)cc1)C(=O)NC1C(NC(=O)N(C)Cc2ccc(Oc3ccccc3)cc2)C(C(=O)O)C1C(=O)O` (stereo not drawn) [Example 120, (1α,2β,3β,4α)-1,2-Di[N-methyl-N-(4-phenoxybenzyl)aminocarbonylamino]cyclobutane-3,4-dicarboxylic acid], the inhibition at 10 µM was determined as 54%.

For the compound `O=C(O)[C@H]1[C@H](C(=O)O)[C@H](C(=O)N(CCCCc2ccccc2)Cc2ccc(Oc3ccccc3)cc2)[C@H]1C(=O)N(CCCCc1ccccc1)Cc1ccc(Oc2ccccc2)cc1` [Example 58, (1α,2β,3β,4α)-1,2-Di[N-(4-phenoxybenzyl)-N-(4-phenyl-1-butyl)aminocarbonyl]cyclobutane-3,4-dicarboxylic acid], the inhibition at 10 µM is 63%.

With `O=C(O)[C@H]1[C@H](C(=O)O)[C@H](C(=O)N(Cc2ccc(Oc3ccccc3)cc2)Cc2ccc(Oc3ccccc3)cc2)[C@H]1C(=O)N(Cc1ccc(Oc2ccccc2)cc1)Cc1ccc(Oc2ccccc2)cc1` [Example 19, (1α,2β,3β,4α)-1,2-Di[N,N-di(4-phenoxybenzyl)aminocarbonyl]cyclobutane-3,4-dicarboxylic acid], 10 µM produced 86% inhibition. The same measure, in the same setting: as for `CCCN(C(=O)C1C(C(=O)O)C(C(=O)O)C1C(=O)N(CCC)c1ccc(Oc2ccccc2)cc1)c1ccc(Oc2ccccc2)cc1` (stereo not drawn) [Example 39C, (1α,2β,3β,4α)-1,2-Di[N-propyl-N-(4-phenoxyphenyl)aminocarbonyl]cyclobutane-3,4-dicarboxylic acid], the figure is 59%. Still for that read-out and setting: as for `CCCN(C(=O)[C@H]1[C@@H](C(=O)O)[C@H](C(=O)O)[C@@H]1C(=O)N(CCC)c1ccc(Nc2ccccc2)cc1)c1ccc(Nc2ccccc2)cc1` [Example 66C, (1α,2β,3β,4α)-1,2-Di[N-propyl-N-(4-phenylaminophenyl)aminocarbonyl]cyclobutane-3,4-dicarboxylic acid], the figure is 33%; as for `O=C(O)[C@H]1[C@H](C(=O)O)[C@H](C(=O)N(Cc2ccccc2)Cc2ccc(Oc3ccccc3)cc2)[C@H]1C(=O)N(Cc1ccccc1)Cc1ccc(Oc2ccccc2)cc1` [Example 15, (1α,2β,3β,4α)-1,2-Di[N-benzyl-N-(4-phenoxybenzyl)aminocarbonyl]cyclobutane-3,4-dicarboxylic acid], 99%.

Consider `CCCN(Cc1ccc(Cc2ccccc2)cc1)C(=O)[C@H]1[C@@H](C(=O)O)[C@H](C(=O)O)[C@@H]1C(=O)N(CCC)Cc1ccc(Cc2ccccc2)cc1` [Example 25, (1α,2β,3β,4α)-1,2-Di[N-propyl-N-(4-benzylbenzyl)aminocarbonyl]cyclobutane-3,4-dicarboxylic acid], for which the inhibition at 10 µM stood at 84%. Regarding `CCCN(Cc1ccc(Oc2ccccc2)cc1)C(=O)[C@H]1[C@@H](C(=O)O)[C@H](C(=O)O)[C@@H]1C(=O)N(C)CC/C=C(\C)CCC=C(C)C` [Example 62B, (1α,2β,3β,4α)-1-[N-Propyl-N-(4-phenoxybenzyl)aminocarbonyl]-2-[N-methyl-N-(homogeranyl)aminocarbonyl]cyclobutane-3,4-dicarboxylic acid], the inhibition at 10 µM turned out to be 83%. `CCCN(Cc1ccc(Oc2ccccc2)cc1)C(=O)C1C(CO)C(C(=O)O)C1C(=O)N(CCC)Cc1ccc(Oc2ccccc2)cc1` (stereo not drawn) [Example 70B, (1α,2β,3β,4α)-1,2-Di[N-propyl-N-(4-phenoxybenzyl)aminocarbonyl]-4-hydroxymethyl-cyclobutane-3-carboxylic acid] displayed an inhibition at 10 µM of 80%.

Still in this test, the particulars now being: values marked * in Table 1: 1 µM test compound; rat liver microsomes, labelled farnesyl pyrophosphate, 10 minutes at 37 °C.
Take `O=C(O)C1C(C(=O)O)C(C(=O)N(Cc2ccc(F)cc2)Cc2ccc(Oc3ccccc3)cc2)C1C(=O)N(Cc1ccc(F)cc1)Cc1ccc(Oc2ccccc2)cc1` (stereo not drawn) [Example 53B, (1α,2β,3β,4α)-1,2-Di[N-(4-fluorobenzyl)-N-(4-phenoxybenzyl)aminocarbonyl]cyclobutane-3.4-dicarboxylic acid]: the inhibition at 1 µM was determined as 63%. Same read-out and setting: under `CCCN(Cc1ccc(Oc2ccccc2)cc1)C(=S)C1C(C(=O)O)C(C(=O)O)C1C(=S)N(CCC)Cc1ccc(Oc2ccccc2)cc1` (stereo not drawn) [Example 130B, (1α,2β,3β,4α)-1,2-Di[N-propyl-N-(4-phenoxybenzyl)aminothiocarbonyl]cyclobutane-3,4-dicarboxylic acid] stands 48%; under `CCCN(Cc1ccc(Oc2ccccc2)cc1)C(=O)C1C(NC(=O)C(=O)O)C(C(=O)O)C1C(=O)N(CCC)Cc1ccc(Oc2ccccc2)cc1` (centres unmarked) [Example 74D], 55%.

`CCCN(Cc1ccc(Oc2ccccc2)cc1)C(=O)[C@@H]1[C@H](C(=O)O)[C@@H](CC(=O)O)[C@H]1C(=O)N(CCC)Cc1ccc(Oc2ccccc2)cc1` (relative stereo) [Example 101C] displayed an inhibition at 1 µM of 86%. `CCCN(Cc1ccc(Sc2ccccc2)cc1)C(=O)C1C(C(=O)O)C(C(=O)O)C1C(=O)N(CCC)Cc1ccc(Sc2ccccc2)cc1` (stereo not drawn) [Example 68B, (1α,2β,3β,4α)-1,2-Di[N-propyl-N-(4-phenylthiobenzyl)aminocarbonyl]cyclobutane-3,4-dicarboxylic acid] came in with an inhibition at 1 µM of 84%. Same read-out and setting: as for `CCCN(Cc1ccc(Oc2ccccc2)cc1)C(=O)C1C(CCC(=O)O)C(C(=O)O)C1C(=O)N(CCC)Cc1ccc(Oc2ccccc2)cc1` (centres unmarked) [Example 77B], the figure is 51%. The same measure, in the same setting: under `CCCN(Cc1ccc(Oc2ccccc2)cc1)C(=O)C1C(Cc2nn[nH]n2)C(C(=O)O)C1C(=O)N(CCC)Cc1ccc(Oc2ccccc2)cc1` (centres unmarked) [Example 73B] stands 75%. As for `CCCN(Cc1ccc(Oc2ccccc2)cc1)C(=O)C1C(C(=O)O)C(C(=O)NC(CC(=O)O)C(=O)O)C1C(=O)N(CCC)Cc1ccc(Oc2ccccc2)cc1` (stereo not drawn) [Example 109, (1α,2β,3β,4α)-1,2-Di[N-propyl-N-(4-phenoxybenzyl)aminocarbonyl]cyclobutane-3,4-dicarboxylic acid mono-d,l-Aspartic acid amide], 1 µM produced 78% inhibition. Still for that read-out and setting: as for `CSCCN(Cc1ccc(Oc2ccccc2)cc1)C(=O)C1C(C(=O)O)C(C(=O)O)C1C(=O)N(CCSC)Cc1ccc(Oc2ccccc2)cc1` (stereo not drawn) [Example 41B, (1α,2β,3β,4α)-1,2-Di[N-(2-methylthioethyl)-N-(4-phenoxybenzyl)aminocarbonyl]cyclobutane-3,4-dicarboxylic acid], the figure is 72%. On the same count and under the same terms, as for `CCCN(Cc1ccc(COc2ccccc2)cc1)C(=O)C1C(C(=O)O)C(C(=O)O)C1C(=O)N(CCC)Cc1ccc(COc2ccccc2)cc1` (stereo not drawn) [Example 69E, (1α,2β,3β,4α)-1,2-Di[N-propyl-N-[4-phenoxymethylbenzyl]aminocarbonyl]cyclobutane-3,4-dicarboxylic acid], the figure is 56%. Regarding “(1α,2β,3β,4α)-1,2-Di[N-propyl-N-(4-phenoxybenzyl)aminocarbonyl]cyclobutane-3,4-dicarboxylic acid mono-d-Norleucine amide [Example 112]”, the “% Inhibition at 1 µM” value was 21* %.

By inhibition is commonly meant how much of the control response was suppressed. Low readings indicate a weak effect, high ones a strong effect. By % Inhibition is commonly meant the share of the control response that was lost under treatment. Higher therefore signals a response far below the control.
